{"source": "patent US8895051B2", "about": "“Flavoring systems for pharmaceutical compositions and methods of making such compositions” (AbbVie Inc., priority 2000, dated 2014)", "key": {"[1]": {"experiment": "solubility in pharmaceutically acceptable solvents and in a co-solvent system", "assay_type": "physicochemical"}, "solubility in water": {"experiment": "solubility in water", "assay_type": "physicochemical", "details": "room temperature and pressure (approximately 25° C. and 1 atmosphere)"}}}
{"smiles": "Cc1cccc(C)c1OCC(=O)N[C@@H](Cc1ccccc1)[C@@H](O)C[C@H](Cc1ccccc1)NC(=O)[C@H](C(C)C)N1CCCNC1=O", "note": "(relative stereo) [lopinavir, [1S-[1R*,(R*),3R*,4R*]]-N-[4-[[(2,6-dimethylphenoxy)acetyl]amino]-3-hydroxy-5-phenyl-1-(phenylmethyl)pentyl]tetrahydro-alpha-(1-methylethyl)-2-oxo-(2H)-pyrimidine acetamide]", "values": [{"measurement": "solubility in pharmaceutically acceptable solvents, such as propylene glycol and ethanol", "setting": "[1]; individual solvents, room temperature (about 25° C.)", "value": "adequately soluble"}, {"measurement": "solubility in a co-solvent system", "setting": "[1]; more than one solvent in the solvent system, versus individual solvents", "value": "significantly improved"}, {"measurement": "solubility in water", "setting": "solubility in water", "value": "practically insoluble"}]}
